Data from paper PMC12528448, “Resistance to CDK7 inhibitors directed by acquired mutation of a conserved residue in cancer cells” (The EMBO Journal, 2025).
Values joined by “and” are separate entries in the source; they are usually repeats but may differ in a detail not shown here. Equal values may be shown once.

Tests used:
22Rv1 cells = test: Growth assay (SRB), 22Rv1; type: cell-based, human
In short: (§1)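 SRB assays: cells treated 2 days post-seeding with increasing drug concentrations for 4 days; IC50 by non-linear regression. IncuCyte assay: drugs added 2 days post-seeding, confluency imaged every 6 h; doubling times from exponential growth fits.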

MCF7 cells = test: Growth assay (SRB), MCF7; type: cell-based, human; settings: for % Growth: biological reps
In short: as §1

22Rv1-CDK7-D97N cells = test: Growth assay (SRB), 22Rv1 CDK7-D97N knock-in pool; type: cell-based, human; settings: for % Growth: 22Rv1 CDK7 D99N
Protocol: (§2) To determine the IC50 of drug treatments on growth, cells were seeded in 96-well culture plates. Two days after seeding, the cells were treated with increasing concentrations of drugs and incubated for 4 days. Cell number was determined using the SRB assay (Skehan et al, [1990]), and IC50 values were calculated using non-linear regression curve fitting in GraphPad Prism v10. For all other growth experiments, cells were seeded into 96-well plates, and appropriate drugs were added 2 days after seeding. Cells were then incubated in an IncuCyte Zoom live-cell imager, with cell confluency measured every 6 h. Cell doubling times were determined by non-linear curve fitting (exponential growth equation) in GraphPad Prism v10.
(§3) Alt-R^TM S.p. Cas9 nuclease V3, Alt-R CRISPR-Cas9 crRNA, TracrRNA and the donor templates were obtained from Integrated DNA Technologies. […] Cells were treated with 0.7 µM of Alt-R HDR Enhancer V2 to improve HRD efficiency. Sequences of the CRISPRs in the crRNA and the donor templates are shown in the Reagents and tools table. Donor templates were designed to include non-coding substitutions to aid genome DNA PCR for identifying knock-in events and to facilitate cloning; these substitutions are noted in the Reagents and tools table.

LNCaP cells = test: Growth assay (SRB), LNCaP; type: cell-based, human
Protocol: as §2

LNCaP-CDK7-D97N cells = test: Growth assay (SRB), LNCaP CDK7-D97N knock-in; type: cell-based, human; settings: for % Growth: LNCaP CDK7 D99N
Protocol: as §2, §3

CDK7-D97N = biological target: T1, CDK7-D97N (Homo sapiens, UniProt P50613, D97N); test: NanoBRET Target Engagement assay, K-10 tracer displacement in HEK293 cells; type: binding; settings: for % Occupacy: CDK7 D97N, replicates N1-N3
T1 construct: expressed in transfected cells; host or cells: HEK293
Protocol: (§4) Energy transfer between the NanoLuc fusion protein and a cell-permeable fluorescent energy transfer probe facilitates quantitative determination of target engagement in live cells (Wells et al, [2020]). Assays were conducted according to this previous report, using the optimal CDK7 probe, K-10, at a concentration of 0.5 µM.
(§5) CDK4, CDK6 and CDK7 and the respective mutant sequences, obtained as synthesised DNA fragments from IDT (Leuven), were cloned by HiFi DNA assembly (New England Biolabs) into the pNLF1-N NanoLuc protein fusion vector (Promega). HEK293 cells, transiently transfected with NanoLuc-CDK fusion constructs, were used for activity determination, utilising the NanoBRET Target Engagement Intracellular Kinase Assay. A CCND1 expression construct was co-transfected with the NanoLuc-CDK4 and NanoLuc-CDK6 fusion constructs. The recommended cell-permeable energy transfer probe, K-10, was used to assess target engagement, as detailed in the manufacturer’s methods (Promega). […] The BRET ratio (mBU) was calculated as acceptor emission (590–610 nm)/donor emission (410–490 nm) × 1000. The mBU values were plotted against the energy probe concentrations to determine maximal binding (Bmax) and Kd values. BRET signal competition by CDK inhibitors was used to determine compound binding to WT and mutant CDKs. […] Inhibitor binding was determined using a fourfold dilution series. mBU values were plotted against test compound concentrations in the presence of K10 tracer. EC50 values were determined using nonlinear regression curve-fitting. Test compound occupancy (%) was calculated using the equation [1 − (x − z)/(y − z)] × 100, where x = mBU in the presence of the test compound and K-10 tracer, y = mBU with K-10 tracer and vehicle control, and z = mBU in the absence of the K-10 tracer or test compound (Wells et al, [2020]).

CDK7-WT = biological target: T2, CDK7-WT (Homo sapiens, UniProt P50613); test: as above; type: binding; settings: for % Occupacy: CDK7 WT, replicates N1-N3
T2 construct: expressed in transfected cells; host or cells: HEK293
Protocol: as §4, §5

T1 sequence (P50613 whole entry D97N): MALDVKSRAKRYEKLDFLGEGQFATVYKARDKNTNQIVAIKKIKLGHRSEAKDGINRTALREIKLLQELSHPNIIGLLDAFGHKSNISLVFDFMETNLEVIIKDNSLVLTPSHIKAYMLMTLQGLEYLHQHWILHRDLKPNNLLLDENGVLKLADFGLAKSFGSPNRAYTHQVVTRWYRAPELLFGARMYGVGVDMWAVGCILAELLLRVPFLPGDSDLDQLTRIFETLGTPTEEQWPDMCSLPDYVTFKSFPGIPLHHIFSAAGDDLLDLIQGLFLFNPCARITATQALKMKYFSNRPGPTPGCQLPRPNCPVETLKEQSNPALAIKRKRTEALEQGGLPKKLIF
T2 sequence (P50613 whole entry): as the sequence (P50613 whole entry D97N) above, with N97D counted along it

CN(C)C/C=C/C(=O)Nc1ccc(C(=O)N[C@@]2(C)CCC[C@@H](Nc3ncc(Cl)c(-c4c[nH]c5ccccc45)n3)C2)nc1 [SY-1365]
% Growth (22Rv1 cells; 22Rv1, Log10 Conc. (nM) 0.09): 53.71% and 72.88% | % Growth (22Rv1 cells; 22Rv1, Log10 Conc. (nM) 0.69): 19.90% and 19.70% | % Growth (22Rv1 cells; 22Rv1, Log10 Conc. (nM) 1.29): 16.91% and 19.74% | % Growth (22Rv1 cells; 22Rv1, Log10 Conc. (nM) 1.89): -7.92% and -2.43% | % Growth (22Rv1 cells; 22Rv1, Log10 Conc. (nM) 2.49): -5.73% and -3.13% | % Growth (22Rv1 cells; 22Rv1, Log10 Conc. (nM) 3.10): 1.12% | % Growth (22Rv1 cells; 22Rv1, Log10 Conc. (nM) 3.70): -11.26% | % Growth (22Rv1 cells; 22Rv1, Log10 Conc. (nM) -0.52): 94.30% and 92.75% | % Growth (22Rv1 cells; 22Rv1, Log10 Conc. (nM) -1.12): 97.77% and 104.48% | % Growth (22Rv1 cells; 22Rv1, Log10 Conc. (nM) -1.72): 103.08% | % Growth (22Rv1 cells; 22Rv1, Log10 Conc. (nM) 0.09, 4 days, biological reps): 64.96% and 59.63% | % Growth (22Rv1 cells; 22Rv1, Log10 Conc. (nM) 0.69, 4 days, biological reps): 28.69% and 25.19% | % Growth (22Rv1 cells; 22Rv1, Log10 Conc. (nM) 1.29, 4 days, biological reps): 21.21% and 16.89% | % Growth (22Rv1 cells; 22Rv1, Log10 Conc. (nM) 1.89, 4 days, biological reps): 0.26% and -4.14% | % Growth (22Rv1 cells; 22Rv1, Log10 Conc. (nM) 2.49, 4 days, biological reps): 1.87% and -4.53% | % Growth (22Rv1 cells; 22Rv1, Log10 Conc. (nM) 3.10, 4 days, biological reps): -0.83% and -4.41% | % Growth (22Rv1 cells; 22Rv1, Log10 Conc. (nM) 3.70, 4 days, biological reps): 0.68% and -4.68% | % Growth (22Rv1 cells; 22Rv1, Log10 Conc. (nM) -0.52, 4 days, biological reps): 89.73% and 90.72% | % Growth (22Rv1 cells; 22Rv1, Log10 Conc. (nM) -1.12, 4 days, biological reps): 93.97% and 90.45% | IC50 (MCF7 cells; 4 days, SRB): 0.89 nM | % Growth (MCF7 cells; Log10 Conc. (nM) 3.70, 4 days): -12.18% | % Growth (MCF7 cells; Log10 Conc. (nM) -0.52, 4 days): 88.75% and 65.89% and 87.60% and 88.37% | % Growth (MCF7 cells; Log10 Conc. (nM) -1.12, 4 days): 97.02% and 94.10% and 95.64% and 94.95% | % Growth (MCF7 cells; Log10 Conc. (nM) -1.72, 4 days): 90.31% and 94.08% and 94.26% | Sensitivity in growth assays (22Rv1-CDK7-D97N cells; 22Rv1-CDK7-D97N vs parental): remaining sensitive | % Growth (22Rv1-CDK7-D97N cells; Log10 Conc. (nM) 0.09): 48.76% and 39.48% | % Growth (22Rv1-CDK7-D97N cells; Log10 Conc. (nM) 0.69): 32.85% and 26.42% | % Growth (22Rv1-CDK7-D97N cells; Log10 Conc. (nM) 1.29): 16.40% and 13.77% | % Growth (22Rv1-CDK7-D97N cells; Log10 Conc. (nM) 1.89): -9.18% and -1.73% | % Growth (22Rv1-CDK7-D97N cells; Log10 Conc. (nM) 3.70): -12.72% | % Growth (22Rv1-CDK7-D97N cells; Log10 Conc. (nM) -0.52): 87.25% and 62.47% | % Growth (22Rv1-CDK7-D97N cells; Log10 Conc. (nM) -1.12): 95.17% and 93.47% | % Growth (22Rv1-CDK7-D97N cells; Log10 Conc. (nM) -1.72): 98.87% | % Growth (LNCaP cells; Log10 Conc. (nM) 0.09): 56.73% and 37.69% | % Growth (LNCaP cells; Log10 Conc. (nM) 1.29): 1.68% and -7.82% | % Growth (LNCaP cells; Log10 Conc. (nM) 2.49): -22.61% and -22.62% | % Growth (LNCaP cells; Log10 Conc. (nM) 3.70): -23.75% | % Growth (LNCaP cells; Log10 Conc. (nM) -0.52): 84.52% and 77.18% | % Growth (LNCaP cells; Log10 Conc. (nM) -1.12): 86.80% and 137.61% | % Growth (LNCaP cells; Log10 Conc. (nM) -1.72): 105.02% | % Growth (LNCaP-CDK7-D97N cells; Log10 Conc. (nM) 0.09): 63.76% and 49.89% | % Growth (LNCaP-CDK7-D97N cells; Log10 Conc. (nM) 0.69): 29.39% and 16.32% | % Growth (LNCaP-CDK7-D97N cells; Log10 Conc. (nM) 1.29): 15.69% and 13.01% | % Growth (LNCaP-CDK7-D97N cells; Log10 Conc. (nM) 1.89): -2.84% and -7.62% | % Growth (LNCaP-CDK7-D97N cells; Log10 Conc. (nM) 2.49): -7.57% and -9.89% | % Growth (LNCaP-CDK7-D97N cells; Log10 Conc. (nM) 3.10): -8.80% and -12.02% | % Growth (LNCaP-CDK7-D97N cells; Log10 Conc. (nM) 3.70): -8.97% | % Growth (LNCaP-CDK7-D97N cells; Log10 Conc. (nM) -0.52): 95.67% and 71.20% | % Growth (LNCaP-CDK7-D97N cells; Log10 Conc. (nM) -1.12): 99.75% and 96.82% | % Growth (LNCaP-CDK7-D97N cells; Log10 Conc. (nM) -1.72): 90.05% | Sensitivity in growth assays (LNCaP-CDK7-D97N cells; LNCaP-CDK7-D97N vs parental): remaining sensitive | EC50 (CDK7-D97N; CDK7-D97N, K-10 0.5 µM, HEK293): 0.0313 µM | % Occupacy (CDK7-D97N; Log10 Conc. (nM) 0.09): 2.93% and 3.17% and -0.97% | % Occupacy (CDK7-D97N; Log10 Conc. (nM) 0.69): 10.17% and 10.16% and 4.41% | % Occupacy (CDK7-D97N; Log10 Conc. (nM) 1.29): 36.69% and 35.14% and 27.40% | % Occupacy (CDK7-D97N; Log10 Conc. (nM) 1.89): 86.86% and 82.26% and 69.03% | % Occupacy (CDK7-D97N; Log10 Conc. (nM) 2.49): 95.98% and 95.66% and 91.52% | % Occupacy (CDK7-D97N; Log10 Conc. (nM) 3.10): 98.50% and 98.01% and 96.95% | % Occupacy (CDK7-D97N; Log10 Conc. (nM) 3.70): 100.42% and 100.34% and 99.95% | % Occupacy (CDK7-D97N; Log10 Conc. (nM) 4.30): 97.72% and 96.80% and 96.75% | % Occupacy (CDK7-D97N; Log10 Conc. (nM) -0.52): -0.36% and 0.88% and 0.71% | % Occupacy (CDK7-D97N; Log10 Conc. (nM) -1.12): 3.66% and 1.72% and -0.86% | % Occupacy (CDK7-D97N; Log10 Conc. (nM) -1.72): 3.68% and 0.83% and -1.37% | Difference in EC50 values for mutant and WT CDK7 (CDK7-D97N; NanoBRET): no significant difference | EC50 (CDK7-WT; CDK7-WT, K-10 0.5 µM, HEK293): 0.029 µM | % Occupacy (CDK7-WT; Log10 Conc. (nM) 0.09): 5.29% and 2.02% and 1.09% | % Occupacy (CDK7-WT; Log10 Conc. (nM) 0.69): 14.34% and 11.55% and 9.36% | % Occupacy (CDK7-WT; Log10 Conc. (nM) 1.29): 40.53% and 32.34% and 29.30% | % Occupacy (CDK7-WT; Log10 Conc. (nM) 1.89): 74.64% and 88.34% and 86.64% | % Occupacy (CDK7-WT; Log10 Conc. (nM) 2.49): 98.27% and 99.01% and 95.02% | % Occupacy (CDK7-WT; Log10 Conc. (nM) 3.10): 99.51% and 100.88% and 97.39% | % Occupacy (CDK7-WT; Log10 Conc. (nM) 3.70): 102.75% and 104.94% and 102.49% | % Occupacy (CDK7-WT; Log10 Conc. (nM) 4.30): 86.99% and 86.89% and 86.73% | % Occupacy (CDK7-WT; Log10 Conc. (nM) -0.52): 10.37% and -0.26% and 2.09% | % Occupacy (CDK7-WT; Log10 Conc. (nM) -1.12): 9.68% and 0.78% and 5.84% | % Occupacy (CDK7-WT; Log10 Conc. (nM) -1.72): 8.54% and -2.37% and 7.63%
